The values that follow come from publication PMC4465654, “Multi-Leu PACE4 Inhibitor Retention within Cells Is PACE4 Dependent and a Prerequisite for Antiproliferative Activity” (BioMed Research International, 2015).

“Also recorded” adds a separate entry of the source. Like-named read-outs stand apart in the source and are kept apart here. Where a SMILES comes first, the peptide text is derived from it.

Test [1] has as its system Huh7 cells. In words: MTT cell proliferation assay, Huh7. Conditions: 72 h, serum-free medium, 1 μM to 300 μM, means of at least 3 independent experiments (Figure 5b). Format: cell-based. On the procedure: (§1) To evaluate peptide growth inhibitory properties, 3000 (Huh7) and 4000 (HepG2) cells were seeded in triplicate in 96-well plates. After 24 h, media was changed for serum-free medium and increasing concentrations of peptide were added. After 72 h, 25 μL of 3-(4,5-Dimethylthiazol-2-yl)-2,5-diphenyltetrazolium bromide (MTT) reagent (5 mg/mL; Sigma Aldrich) was added to each well and, after 4-hour incubation, medium was carefully removed and cells were lysed in acidic isopropanol (24 : 1 HCl 1 N). Absorbance at 550 nm and 650 nm (reference wavelength) was measured using a plate spectrophotometer.
(§2) Figure 5 Antiproliferative properties of ML peptide on the tested cell lines. […] Data are means ± SEM of at least 3 independent experiments.

Test [2] deals with HT1080 cells. In words: MTT cell proliferation assay, HT1080. Format: cell-based. Conditions: 72 h, serum-free medium, 1 μM to 300 μM, means of at least 3 independent experiments (Figure 5c). (In general: Tetrazolium dyes change colour on reduction, which living cells bring about.)
The test system of test [3] is HepG2 cells. Kind of test: MTT cell proliferation assay, HepG2. Format: cell-based. As to conditions: 72 h, serum-free medium, 1 μM to 300 μM, means of at least 3 independent experiments (Figure 5a). On the procedure: as §1, §2
The target in test [4] is recombinant PACE4. Conditions: in vitro inhibition, read-out: K i against recombinant PACE4, cited from earlier work.

Consider `CC(=O)N[C@@H](CC(C)C)C(=O)N[C@@H](CC(C)C)C(=O)N[C@@H](CC(C)C)C(=O)N[C@@H](CC(C)C)C(=O)N[C@@H](CCCNC(=N)N)C(=O)N[C@H](C(=O)N[C@@H](CCCCN)C(=O)N[C@@H](CCCNC(=N)N)C(N)=O)C(C)C` [ML peptide, Ac-LLLLRVKR-NH2] (Ac-LLLLRVKR-NH2), for which the “inhibition of cell proliferation relative to untreated cells” value in test [1] is recorded as “dose-response inhibition of cell proliferation”; in test [2], “dose-response inhibition of cell proliferation; also recorded: lowest response”; in test [3], “dose-response inhibition of cell proliferation”. The Ki in test [4] (independently of the addition of the NOTA moiety) was 20 nM.

With `CC(=O)N[C@@H](CCCNC(=N)N)C(=O)N[C@@H](CC(C)C)C(=O)N[C@@H](CCCNC(=N)N)C(=O)N[C@@H](CC(C)C)C(=O)N[C@@H](CC(C)C)C(=O)N[C@@H](CCCCN)C(=O)N[C@H](C(=O)N[C@@H](CC(C)C)C(N)=O)C(C)C` [scramble version of the ML peptide, Ac-RLRLLKVL-NH2, reference compound] (Ac-RLRLLKVL-NH2), the “inhibition of cell proliferation relative to untreated cells” value in test [1], in test [2] and in test [3] was “inactive” each time. For the same compound, the Ki in test [4] is more than 10000 nM.
